Experimental data reported in patent US4284633A, “Derivatives of xanthine” (Boehringer Mannheim GmbH, priority 1979, dated 1981).

Test system: antigen induced bronchospasm
Assay: inhibition of antigen induced bronchospasm in passively sensitized guinea pigs
Assay type: in vivo, guinea pig
Conditions: 5 minutes before antigen, evaluated 3 minutes after antigen
Method: Specifically, tests were run as follows:
The antigen is twice recrystallized egg albumin.
The animals were bled and the pooled serum stored at -20° C.
Injections of 0.5 ml antiserum of 1:50 dilution were given i.v. 24-48 h before challenge.
Guinea pigs were anaesthetized with pentobarbital sodium (40 mg/kg i.p.). Cannulae were tied into the trachea and the jugular vein and the lung inflated with a pump at a rate of 72 strokes/min and a constant stroke volume of 6-8 ml.
Bronchospasm, provoked by injecting ovalbumin i.v. was measured as described by Konzett, H. and R. Rossler, "Versuchsanordnung und Untersuchungen an der Bronchialmuskulatur" Naunyn-Schmiedebergs, Arch. exp. Path. Pharmak.
The drugs were applied intravenously 5 minutes before the antigen.
For calculation the following formula was used: [formula] b=Bronchospasm after antigen injection, measured in mm from tracing m=maximum height of tracing in mm with arm of the treachea-cannula clamped
a=pre injection height of the tracing in mm

Compound | % inhibition Br Sp (antigen induced bronchospasm) (0.38 mg/kg i.v.) | % inhibition Br Sp (antigen induced bronchospasm) (0.1 mg/kg i.v.) | further results
Cn1c(=O)c2c(ncn2CCCN2CCC(NC(=O)Cc3ccccc3)CC2)n(C)c1=O [Example 2e, 7-[3-(4-phenylacetamidopiperidino)-propyl]-theophylline] | 68% |  | 
CC(=O)NC1CCN(CCCn2cnc3c2c(=O)n(C)c(=O)n3C)CC1 [Example 2c, 7-[3-(4-acetamidopiperidino)-propyl]-theophylline] | 37% |  | 
Cc1ccccc1C(=O)NC1CCN(CCCn2cnc3c2c(=O)n(C)c(=O)n3C)CC1 [Example 2d, 7-{3-[4-(2-methylbenzamido)-piperidino]-propyl}-theophylline] |  | 60% | 
Cn1c(=O)c2c(ncn2CCCN2CCC(NC(=O)c3ccccc3O)CC2)n(C)c1=O [Example 4a, 7-{3-[4-(2-hydroxybenzamido)-piperidino]-propyl}-theophylline] |  | 82% | 
Cn1c(=O)c2[nH]cnc2n(C)c1=O [Aminophylline, reference compound] |  |  | % inhibition Br Sp (antigen induced bronchospasm) (24 mg/kg i.v.): 29%
Cn1c(=O)c2c(ncn2CCCN2CCC(NC(=O)c3cccs3)CC2)n(C)c1=O [Example 4d, 7-{3-[4-(thiophene-2-carboxamido)-piperidino]-propyl}-theophylline] |  | 38% | 
